Experimental findings from PMC5870190, “A three-in-one-bullet for oesophageal cancer: replication fork collapse, spindle attachment failure and enhanced radiosensitivity generated by a ruthenium(II) metallo-intercalator” (Chemical Science, 2017) are described below.

In assay [1] the test system is hSAEC1-KT normal human small airway epithelial cells. Put plainly: MTT assay, hSAEC1-KT cells. The format is cell-based. The procedure: MTT assay. OE21, FLO-1 or hSAEC1-KT cells were seeded in 96 well plates at 20,000 cells/well (for 24 h treatment) or 10,000 cells/well (for 72 h treatment) and allowed to adhere for 24 h before treatment. OE33 cells were seeded in 48 well plates at 40,000 cells/well (24 h treatment) or 20,000 cells/well (72 h treatment). Cancer cell lines were treated with chemicals dissolved in RPMI media for consistency. After incubation, 0.5 mg/ml MTT (thiazolyl blue tetrazolium bromide) dissolved in serum-free medium was added for 60 minutes and the formazan product eluted using acidified isopropanol.
The absorbance at 540 nm was quantified by plate reader (reference wavelength 650 nm). The metabolic activity of the cell population was determined as a percentage of a negative (solvent) control. […]
For the determination of mutation induction, from the untreated and each treated condition, 2x10^5 cells were plated in 10 x 100 mm dishes in selective media (regular media
(In general: Tetrazolium assays rely on reduction of a dye to a coloured formazan, in cell work by metabolically active cells.)

Assay [2] deals with OE21 cells. The experiment in a line: DNA fibre assay (replication fork progression). The format is cell-based, human. The following applies: Ru1 21 μM or dppz 7 μM during second (IdU) pulse, 30 min. The procedure:
DNA fibre assay. The DNA fibre assay was performed as described previously.5 Briefly, OE21 cells were labelled with 30 µM CldU for 30 mins and then 250 µM IdU for an additional 30 mins. Either Ru1 (21 µM) or dppz (7 µM) was added during the second (IdU) nucleotide step (30 mins). DNA replication was terminated using ice-cold PBS and cells lysed (200 mM Tris-HCl pH 7.4, 50 mM EDTA and 0.5% SDS). DNA fibres were spread onto glass slides, fixed with methanol:acetic acid (3:1) and denatured with 2.5 M HCl. After blocking with 2% BSA, fibres were stained with anti-rat and anti-mouse 5-bromo-2′- deoxyuridine (BrdU) that specifically recognise either CldU (Abcam, dilution 1:500) or IdU (BD Sciences, 1:100). Anti-rat Cy3 (Jackson Immuno Research, 1:300) and anti-mouse Alexa-488 (Molecular Probes, 1:300) were used as the respective secondary antibodies. CldU- and IdU-labelled tracts were visualised using a Leica DMRB microscope with a DFC360FX camera and tract length measured by ImageJ software. Statistical analysis was performed by GraphPad Prism software using an unpaired t-test.
Western blotting. Treated samples were washed with cold PBS and lysed in RIPA (radioimmunoprecipitation assay) buffer containing protease inhibitors (10 μg/mL leupeptin, 2 μg/mL pepstatin, 50 μg/mL antipain, 2 μg/mL aprotinin, 20 μg/mL chyprostatin, 2 μg/mL benzamidine, 1 mM phenylmethanesulfonyl fluoride) and phosphatase inhibitors (50 mM NaF, 1 mM […]
Bis-Tris gels and LDS-PAGE. Gels were transferred onto nitrocellulose membrane and probed with primary antibodies in 5% BSA (bovine serum albumin) solutions at the following dilutions: 1/1000 dilution for majority of Cell Signaling antibodies and γH2AX. 1/500 for anti-p-ATR and anti-cleaved caspase 3. 1/200 anti-Chk1. 1/5000-1/10,000 anti- α-tubulin or β-actin.
Reactions were visualised with a suitable secondary antibody conjugated with horseradish peroxidase (1/5000 dilution, Thermo). […]

The test system of assay [3] is OE21 cells. The experiment in a line: Cell-cycle analysis by flow cytometry. The format is cell-based, human. The following applies: OE21, 20 μM, 24 h. The procedure: (§1) phototoxic contribution to bio-activity. Doxorubicin (Sigma) was prepared in doubly-distilled water (10 mg/mL, 17.4 mM).
(§2) [Ru(phen)2(dppz)]2+ (2 mM) was prepared in doubly-distilled water.
(§3) Sub-cellular fractionation. OE21 or OE33 cells were treated in 12 well plates, washed with cold PBS (2x2 mls) and nuclear and cytosol fractions obtained using the Nuclei EZ Lysis kit (Sigma). Briefly, cells were washed with acidified PBS (pH 2.5) to remove the membrane-bound fraction and 0.4 ml EZ lysis buffer was added. Cells were detached by scraping, collected into eppendorfs, vortexed briefly and left for 5 minutes on ice. Samples were centrifuged (500g, 5 mins) and the supernatant (cytosol fraction) aspirated. The pellet (nuclear fraction) was re-suspended in 200 µl RIPA buffer. […] Ruthenium content was determined by ICP-MS analysis as described in a recent […]
(§4) DNA fibre assay. […] CldU- and IdU-labelled tracts were visualised using a Leica DMRB microscope with a DFC360FX camera and tract length measured by ImageJ software. […]
(§5) Western blotting. […] Protein content was determined by BCA assay. […]
(§6) AnnexinV staining. […] This was incubated for 15 mins at room temperature, 400 µl binding buffer added and analysed by flow cytometry (FL1 and FL3 channels for FITC and PI respectively). […]
On the technique in general: A flow cytometer gives signals particle by particle.

Assay [4] relates to OE21 cells. The experiment in a line: Apoptosis (AnnexinV staining, karyorrhexis, cleaved caspase 3). Type of assay: cell-based, human. The following applies: OE21, 21 μM, 24 h. The procedure: as §1, §2, §3, §4, §5, §6

What is called IC50 is the concentration at which inhibition is half-maximal. Low values mean greater potency in that assay, high ones weaker potency in that assay.

[Ru(phen)2(tpphz)]^2+ [Ru1]: the IC50 in assay [1] (24 h constant exposure) was 78.5 ± 1.3 µM; in assay [1] (72 h constant exposure), 22 ± 2 µM. Moreover, the “increase in completely stalled/terminated replication forks (CldU tract only) compared to mock-treated” value in assay [2] is reported as 1.7 fold. The “increase in G2/M phase cells compared to control” value in assay [3] was “two-fold”. The apoptosis entry in assay [4] is “low levels of apoptosis”.
